# Source: the supplement of paper PMC10307832
# Key:
# Assay in all cases: relative viability (nuclei count vs DMSO), 5 days (fraction); higher = more cells survive
# [1] = test system: EKVX
# Outline: (§1)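 One day after seeding in 1536-well plates, lung cancer cell lines were dosed by pin tool. Dosing was either single-drug or a fixed anchor-drug dose plus five library-drug doses (not always all listed) in √10 steps. After 5 days, nuclei were stained in one fix-and-stain step and counted on 4× images, and relative viability is the nuclei count of treated wells over that of vehicle wells, given as the median of duplicate plates.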
# [2] = test system: HCC-15
# Outline: as §1
# [3] = test system: HCC-44
# Outline: as §1
# [4] = test system: LCLC-103H
# Outline: as §1
# [5] = test system: NCI-H1395
# Outline: as §1
# [6] = test system: NCI-H1648
# Outline: as §1
# [7] = test system: NCI-H1755
# Outline: as §1
# [8] = test system: UMC-11
# Outline: as §1
compound,measurement,setting,value
O=c1cc(N2CCOCC2)oc2c(-c3cccc4c3sc3ccccc34)cccc12 + Nc1nc2[nH]cc(CCc3ccc(C(=O)N[C@@H](CCC(=O)O)C(=O)O)cc3)c2c(=O)[nH]1 [Pemetrexed] (partner 0.2 µM),relative viability,[1]; first compound 0.01 µM,0.41
same,relative viability,[1]; first compound 0.03162 µM,0.384
same,relative viability,[1]; first compound 0.1 µM,0.419
same,relative viability,[1]; first compound 0.3162 µM,0.365
same,relative viability,[1]; first compound 1 µM,0.362
same,relative viability,[2]; first compound 0.01 µM,0.214
same,relative viability,[2]; first compound 0.03162 µM,0.221
same,relative viability,[2]; first compound 0.1 µM,0.225
same,relative viability,[2]; first compound 0.3162 µM,0.205
same,relative viability,[2]; first compound 1 µM,0.195
same,relative viability,[3]; first compound 0.01 µM,0.667
same,relative viability,[3]; first compound 0.03162 µM,0.643
same,relative viability,[3]; first compound 0.1 µM,0.587
same,relative viability,[3]; first compound 0.3162 µM,0.591
same,relative viability,[3]; first compound 1 µM,0.664
same,relative viability,[4]; first compound 0.01 µM,0.44
same,relative viability,[4]; first compound 0.03162 µM,0.503
same,relative viability,[4]; first compound 0.1 µM,0.485
same,relative viability,[4]; first compound 0.3162 µM,0.465
same,relative viability,[4]; first compound 1 µM,0.457
same,relative viability,[5]; first compound 0.03162 µM,0.908
same,relative viability,[5]; first compound 0.1 µM,0.909
same,relative viability,[5]; first compound 0.3162 µM,1.01
same,relative viability,[5]; first compound 1 µM,0.855
same,relative viability,[6]; first compound 0.03162 µM,0.681
same,relative viability,[6]; first compound 0.1 µM,0.894
same,relative viability,[6]; first compound 0.3162 µM,0.667
same,relative viability,[6]; first compound 1 µM,0.583
same,relative viability,[7]; first compound 0.01 µM,0.476
same,relative viability,[7]; first compound 0.03162 µM,0.441
same,relative viability,[7]; first compound 0.1 µM,0.425
same,relative viability,[7]; first compound 0.3162 µM,0.414
same,relative viability,[7]; first compound 1 µM,0.445
same,relative viability,[8]; first compound 0.01 µM,0.738
same,relative viability,[8]; first compound 0.03162 µM,0.66
same,relative viability,[8]; first compound 0.1 µM,0.868
same,relative viability,[8]; first compound 0.3162 µM,0.805
same,relative viability,[8]; first compound 1 µM,0.789
CCN(CC)CCCCNc1ncc2cc(-c3cc(OC)cc(OC)c3)c(NC(=O)NC(C)(C)C)nc2n1 + Nc1nc2[nH]cc(CCc3ccc(C(=O)N[C@@H](CCC(=O)O)C(=O)O)cc3)c2c(=O)[nH]1 [Pemetrexed] (partner 0.2 µM),relative viability,[1]; first compound 0.03162 µM,0.354
same,relative viability,[1]; first compound 0.1 µM,0.362
same,relative viability,[1]; first compound 0.3162 µM,0.475
same,relative viability,[1]; first compound 1 µM,0.379
same,relative viability,[2]; first compound 0.01 µM,0.21
same,relative viability,[2]; first compound 0.03162 µM,0.237
same,relative viability,[2]; first compound 0.1 µM,0.206
same,relative viability,[2]; first compound 0.3162 µM,0.209
same,relative viability,[2]; first compound 1 µM,0.207
same,relative viability,[3]; first compound 0.01 µM,0.682
same,relative viability,[3]; first compound 0.03162 µM,0.705
same,relative viability,[3]; first compound 0.1 µM,0.634
same,relative viability,[3]; first compound 0.3162 µM,0.625
same,relative viability,[3]; first compound 1 µM,0.721
same,relative viability,[4]; first compound 0.01 µM,0.444
same,relative viability,[4]; first compound 0.03162 µM,0.488
same,relative viability,[4]; first compound 0.1 µM,0.485
same,relative viability,[4]; first compound 0.3162 µM,0.457
same,relative viability,[4]; first compound 1 µM,0.533
same,relative viability,[5]; first compound 0.01 µM,0.898
same,relative viability,[5]; first compound 0.03162 µM,0.787
same,relative viability,[5]; first compound 0.1 µM,0.955
same,relative viability,[5]; first compound 0.3162 µM,1.06
same,relative viability,[5]; first compound 1 µM,0.607
same,relative viability,[6]; first compound 0.01 µM,0.7
same,relative viability,[6]; first compound 0.03162 µM,0.815
same,relative viability,[6]; first compound 0.1 µM,0.722
same,relative viability,[6]; first compound 0.3162 µM,0.491
same,relative viability,[6]; first compound 1 µM,0.487
same,relative viability,[7]; first compound 0.01 µM,0.413
same,relative viability,[7]; first compound 0.03162 µM,0.572
same,relative viability,[7]; first compound 0.1 µM,0.356
same,relative viability,[7]; first compound 0.3162 µM,0.448
same,relative viability,[7]; first compound 1 µM,0.435
same,relative viability,[8]; first compound 0.01 µM,0.862
same,relative viability,[8]; first compound 0.03162 µM,0.767
same,relative viability,[8]; first compound 0.1 µM,0.969
same,relative viability,[8]; first compound 0.3162 µM,0.986
same,relative viability,[8]; first compound 1 µM,0.696
O=c1cc(-c2cccc3c2Sc2ccccc2S3)oc(N2CCOCC2)c1 + Nc1nc2[nH]cc(CCc3ccc(C(=O)N[C@@H](CCC(=O)O)C(=O)O)cc3)c2c(=O)[nH]1 [Pemetrexed] (partner 0.2 µM),relative viability,[1]; first compound 0.08 µM,0.428
same,relative viability,[1]; first compound 0.253 µM,0.376
same,relative viability,[1]; first compound 0.8 µM,0.381
same,relative viability,[1]; first compound 2.53 µM,0.482
same,relative viability,[1]; first compound 8 µM,0.436
same,relative viability,[2]; first compound 0.08 µM,0.23
same,relative viability,[2]; first compound 0.253 µM,0.253
same,relative viability,[2]; first compound 0.8 µM,0.207
same,relative viability,[2]; first compound 2.53 µM,0.204
same,relative viability,[2]; first compound 8 µM,0.228
same,relative viability,[3]; first compound 0.08 µM,0.63
same,relative viability,[3]; first compound 0.253 µM,0.641
same,relative viability,[3]; first compound 0.8 µM,0.607
same,relative viability,[3]; first compound 2.53 µM,0.67
same,relative viability,[3]; first compound 8 µM,0.676
same,relative viability,[4]; first compound 0.08 µM,0.44
same,relative viability,[4]; first compound 0.253 µM,0.467
same,relative viability,[4]; first compound 0.8 µM,0.473
same,relative viability,[4]; first compound 2.53 µM,0.423
same,relative viability,[4]; first compound 8 µM,0.438
same,relative viability,[5]; first compound 0.08 µM,0.842
same,relative viability,[5]; first compound 0.253 µM,0.764
same,relative viability,[5]; first compound 0.8 µM,0.936
same,relative viability,[5]; first compound 2.53 µM,0.765
same,relative viability,[5]; first compound 8 µM,1.09
same,relative viability,[6]; first compound 0.253 µM,0.701
same,relative viability,[6]; first compound 0.8 µM,0.624
same,relative viability,[6]; first compound 8 µM,0.749
same,relative viability,[7]; first compound 0.08 µM,0.572
same,relative viability,[7]; first compound 0.253 µM,0.398
same,relative viability,[7]; first compound 0.8 µM,0.389
same,relative viability,[7]; first compound 2.53 µM,0.574
same,relative viability,[7]; first compound 8 µM,0.366
same,relative viability,[8]; first compound 0.08 µM,0.823
same,relative viability,[8]; first compound 0.253 µM,1.04
same,relative viability,[8]; first compound 0.8 µM,0.82
same,relative viability,[8]; first compound 2.53 µM,0.791
same,relative viability,[8]; first compound 8 µM,0.935
